Data from the NIST ThermoML archive (doi:10.1021/acs.jced.6b00450).
± gives the expanded uncertainty stated by the source.

Columns and labels:
[1] = for Normal melting temperature: Crystal, DTA; for Glass transition temperature: DSC; for viscosity / mass density: 101.33 kPa, Liquid; for viscosity: Concentric cylinders viscometry; for mass density: Vibrating tube method
[2] = refractive index (Na D-line) (dimensionless); conditions: 101.33 kPa, Liquid, Standard Abbe refractometry

Structure (SMILES)	Normal melting temperature [1] [°C]	refractive index ([2]; 293.15 K)	refractive index ([2]; 298.15 K)	refractive index ([2]; 303.15 K)	refractive index ([2]; 308.15 K)	refractive index ([2]; 313.15 K)	refractive index ([2]; 318.15 K)	refractive index ([2]; 323.15 K)	Glass transition temperature [1] [°C]	viscosity ([1]; 303.15 K) [mPa·s]	mass density ([1]; 303.15 K) [kg/m3]	viscosity ([1]; 313.15 K) [mPa·s]	mass density ([1]; 313.15 K) [kg/m3]	viscosity ([1]; 323.15 K) [mPa·s]	mass density ([1]; 323.15 K) [kg/m3]	viscosity ([1]; 333.15 K) [mPa·s]	mass density ([1]; 333.15 K) [kg/m3]	viscosity ([1]; 343.15 K) [mPa·s]	mass density ([1]; 343.15 K) [kg/m3]	viscosity ([1]; 353.15 K) [mPa·s]	other results
N#CCCn1cc[nH+]c1.O=C([O-])C(F)(F)F [1-(2-cyanoethyl)imidazolium trifluoroacetate]	-13.48 ± 2																				
Cn1ccnc1.O=S(=O)(O)O [1-methylimidazolium hydrogen sulfate]	20.88 ± 2	1.48955 ± 0.007	1.48865 ± 0.007	1.48761 ± 0.007	1.48655 ± 0.007	1.48552 ± 0.007	1.48432 ± 0.007	1.48311 ± 0.007	-73.49 ± 2.1												
CS(=O)(=O)[O-].N#CCCn1cc[nH+]c1 [1-(2-cyanoethyl)imidazolium methanesulfonate]		1.50224 ± 0.007	1.50096 ± 0.007	1.49962 ± 0.007	1.49826 ± 0.007	1.49686 ± 0.007	1.49547 ± 0.007	1.49402 ± 0.007	-59.40 ± 2.1												
Cc1ccc(S(=O)(=O)[O-])cc1.N#CCCn1cc[nH+]c1 [1-(2-cyanoethyl)imidazolium 4-methylbenzenesulfonate]		1.54509 ± 0.0072	1.54414 ± 0.0072	1.54297 ± 0.0072	1.54177 ± 0.0072	1.54051 ± 0.0072	1.53926 ± 0.0072	1.53798 ± 0.0072	-57.34 ± 2.1	24795 ± 2900	1266.3 ± 30	6910.9 ± 670	1259.6 ± 30	2376.6 ± 190	1253 ± 30	977.44 ± 67	1247.9 ± 30	459.63 ± 27	1241.2 ± 29	239.96 ± 13	mass density ([1]; 353.15 K): 1233.7 ± 29 kg/m3; viscosity ([1]; 363.15 K): 138.89 ± 6.7 mPa·s; mass density ([1]; 363.15 K): 1229.1 ± 29 kg/m3; viscosity ([1]; 373.15 K): 85.89 ± 4 mPa·s; mass density ([1]; 373.15 K): 1221.5 ± 28 kg/m3
CC(=O)[O-].N#CCCn1cc[nH+]c1 [1-(2-cyanoethyl)imidazolium acetate]		1.48534 ± 0.007	1.48368 ± 0.007	1.48197 ± 0.007	1.48025 ± 0.007	1.47851 ± 0.007	1.4768 ± 0.007	1.47508 ± 0.007	-78.12 ± 2.1	55.28 ± 0.49	1120.5 ± 4.1	31.57 ± 0.3	1113 ± 4.1	19.79 ± 0.19	1105.2 ± 4.1	13.32 ± 0.13	1097.7 ± 4.1	9.483 ± 0.092	1089.8 ± 4.1	7.118 ± 0.069	viscosity ([1]; 293.15 K): 108.22 ± 1.7 mPa·s; mass density ([1]; 293.15 K): 1127.7 ± 4.1 kg/m3; mass density ([1]; 353.15 K): 1082 ± 4.1 kg/m3; viscosity ([1]; 363.15 K): 5.294 ± 0.052 mPa·s; mass density ([1]; 363.15 K): 1073.2 ± 4.1 kg/m3; viscosity ([1]; 373.15 K): 4.252 ± 0.042 mPa·s; mass density ([1]; 373.15 K): 1062.2 ± 4.1 kg/m3
N#CCCn1cc[nH+]c1.O=S(=O)([O-])O [1-(2-cyanoethyl)imidazolium hydrogen sulfate]		1.5022 ± 0.007	1.50138 ± 0.007	1.50034 ± 0.007	1.49927 ± 0.007	1.49817 ± 0.007	1.49708 ± 0.007	1.49599 ± 0.007	-49.71 ± 2.1	3102.2 ± 220	1423.3 ± 4	1397.9 ± 81	1417.4 ± 4	707.69 ± 33	1411.4 ± 4	394.22 ± 14	1405 ± 4	236.85 ± 6.5	1398.8 ± 4	151.62 ± 3	viscosity ([1]; 293.15 K): 7937 ± 700 mPa·s; mass density ([1]; 293.15 K): 1429.4 ± 4 kg/m3; mass density ([1]; 353.15 K): 1393 ± 4 kg/m3; viscosity ([1]; 363.15 K): 102.28 ± 1.4 mPa·s; mass density ([1]; 363.15 K): 1385.9 ± 4 kg/m3; viscosity ([1]; 373.15 K): 72.1 ± 0.55 mPa·s; mass density ([1]; 373.15 K): 1378.6 ± 4 kg/m3
N#CCCn1cc[nH+]c1.O=S(=O)([O-])C(F)(F)F [1-(2-cyanoethyl)imidazolium trifluoromethanesulfonate]	99.67 ± 2																				
